The assay deals with T1, recombinant integrin α4β7 (Homo sapiens, UniProt P13612+P26010, DEL724-798).
T1 construct: purchased R&D Systems 5397-A3-050
T1 sequence (P13612 34-970 limits assumed): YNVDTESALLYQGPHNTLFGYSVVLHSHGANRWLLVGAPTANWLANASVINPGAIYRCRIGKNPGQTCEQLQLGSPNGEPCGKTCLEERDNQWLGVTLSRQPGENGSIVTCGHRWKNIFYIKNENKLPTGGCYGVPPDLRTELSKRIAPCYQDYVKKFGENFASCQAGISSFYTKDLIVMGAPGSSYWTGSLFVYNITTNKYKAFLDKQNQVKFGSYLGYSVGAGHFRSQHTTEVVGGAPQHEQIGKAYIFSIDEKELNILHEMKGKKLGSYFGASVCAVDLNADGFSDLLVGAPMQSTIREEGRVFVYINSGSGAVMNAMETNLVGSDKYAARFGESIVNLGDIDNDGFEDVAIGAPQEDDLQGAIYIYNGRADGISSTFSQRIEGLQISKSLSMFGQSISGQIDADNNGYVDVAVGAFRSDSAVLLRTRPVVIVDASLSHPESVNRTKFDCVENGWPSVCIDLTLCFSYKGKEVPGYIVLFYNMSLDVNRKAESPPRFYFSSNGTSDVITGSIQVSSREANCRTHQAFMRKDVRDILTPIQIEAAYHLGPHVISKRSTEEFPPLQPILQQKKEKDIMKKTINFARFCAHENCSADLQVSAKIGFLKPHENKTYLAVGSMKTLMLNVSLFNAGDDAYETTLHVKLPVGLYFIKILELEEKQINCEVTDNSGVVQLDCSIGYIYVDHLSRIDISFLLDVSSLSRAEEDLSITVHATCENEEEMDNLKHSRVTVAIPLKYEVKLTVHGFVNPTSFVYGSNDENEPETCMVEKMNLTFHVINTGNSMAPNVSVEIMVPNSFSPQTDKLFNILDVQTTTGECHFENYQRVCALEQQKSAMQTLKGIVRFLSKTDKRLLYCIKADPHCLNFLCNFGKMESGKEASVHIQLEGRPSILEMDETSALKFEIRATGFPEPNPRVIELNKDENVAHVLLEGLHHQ
T1 sequence (P26010 20-723 limits assumed): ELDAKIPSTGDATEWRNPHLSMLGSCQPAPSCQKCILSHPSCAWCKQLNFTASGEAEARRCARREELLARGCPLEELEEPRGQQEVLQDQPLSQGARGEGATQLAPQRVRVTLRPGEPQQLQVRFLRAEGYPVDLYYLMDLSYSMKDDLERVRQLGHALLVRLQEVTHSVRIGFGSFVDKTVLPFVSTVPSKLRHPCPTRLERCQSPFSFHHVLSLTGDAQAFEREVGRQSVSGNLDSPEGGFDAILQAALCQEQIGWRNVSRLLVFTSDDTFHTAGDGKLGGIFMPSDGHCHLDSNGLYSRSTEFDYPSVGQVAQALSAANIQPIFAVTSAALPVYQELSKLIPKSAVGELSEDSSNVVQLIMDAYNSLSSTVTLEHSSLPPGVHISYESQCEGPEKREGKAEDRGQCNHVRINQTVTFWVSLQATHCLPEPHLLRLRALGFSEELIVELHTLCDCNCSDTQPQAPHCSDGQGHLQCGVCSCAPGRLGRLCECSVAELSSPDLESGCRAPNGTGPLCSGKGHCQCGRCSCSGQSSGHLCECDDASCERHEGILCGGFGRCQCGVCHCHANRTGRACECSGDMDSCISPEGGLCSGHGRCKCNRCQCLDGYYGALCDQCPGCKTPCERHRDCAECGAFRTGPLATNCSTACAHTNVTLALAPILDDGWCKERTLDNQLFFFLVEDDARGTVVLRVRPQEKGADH
Description: Integrin α4β7—MAdCAM-1 ELISA competition assay. The class given is binding. Conditions: for IC50: read-out: ELISA a4b7 Assay IC50; for ELISA Assay Ratio b1/b7: ratio of a4b1 to a4b7 ELISA IC50. A general note: In an ELISA, binding on a coated surface is turned into a signal by an enzyme label.

The source of these data is patent publication US11713338B2, “Cyclic peptides multimers targeting α-4-β-7 integrin” (priority 2016, dated 2023).

The structures appear in SMILES notation.

Broadly, the IC50 is the concentration at which inhibition is half-maximal.

Regarding `COc1cccc(Cl)c1-c1ccccc1C[C@@H]1NC(=O)[C@@H]2CCCN2[C@H](C(=O)NC(C)(C)C)[C@H](C)NC(=O)[C@H]([C@@H](C)O)NC(=O)[C@H](CC(=O)O)NC(=O)[C@H](CC(C)C)NC(=O)C[C@H](CCCCN)NC1=O` [Compound 279], the IC50 came out at 100 nM.
On the same count and under the same terms, to `CC[C@H](C)[C@@H]1NC(=O)[C@H](CC(=O)O)NC(=O)[C@H](CC(C)C)NC(=O)[C@H](Cc2c[nH]c3ccccc23)NC(=O)[C@@H]2CCCN2[C@H](C(=O)NC(C)(C)C)[C@H](C)NC1=O` [Compound 8] belongs 103 nM; to `CC(C)C[C@@H]1NC(=O)[C@H](Cc2ccncc2)NC(=O)[C@@H]2CCCN2[C@H](C(=O)NC(C)(C)C)[C@H](C)NC(=O)[C@H]([C@@H](C)O)NC(=O)[C@H](CC(=O)O)NC1=O` [Compound 54], 190 nM.
For the molecule `CC[C@H](C)[C@@H]1NC(=O)[C@H](CC(=O)O)NC(=O)[C@H](CC(C)C)NC(=O)C[C@H](CCCCN)NC(=O)[C@H](Cc2ccc(CN)cc2)NC(=O)[C@@H]2CCCN2[C@H](C(=O)NC(C)(C)C)[C@H](C)NC1=O` [Compound 215], the “ELISA Assay Ratio b1/b7” value was found to be 12.4 and the IC50 came out at 33 nM.
Consider `CC(C)C[C@@H]1NC(=O)c2ccc(-c3cccc(CN)c3)c(c2)CNC(=O)[C@@H]2CCCN2[C@H](C(=O)NC(C)(C)C)[C@H](C)NC(=O)[C@H]([C@@H](C)O)NC(=O)[C@H](CC(=O)O)NC1=O` [Compound 382], for which the IC50 came to 12 nM.
As to `CC(C)C[C@@H]1NC(=O)[C@H](Cc2ccc(O)cc2)NC(=O)[C@@H]2CCCN2C(C(=O)NC(C)(C)C)C(CSc2ccccc2)NC(=O)[C@H]([C@@H](C)O)NC(=O)[C@H](CC(=O)O)NC1=O` (stereo partly drawn) [Compound 3], the “ELISA Assay Ratio b1/b7” value came to 2.474.
In the case of `CC(C)C[C@@H]1NC(=O)C[C@H](CCCCN)NC(=O)[C@H](Cc2ccccc2-c2cccnc2Br)NC(=O)[C@@H]2CCCN2[C@H](C(=O)NC(C)(C)C)[C@H](C)NC(=O)[C@H]([C@@H](C)O)NC(=O)[C@H](CC(=O)O)NC1=O` [Compound 297], the half-inhibitory concentration (IC50) was determined as 37 nM.
On to `CCC[C@@H]1NC(=O)[C@@H]2CCCN2[C@H](C(=O)NC(C)(C)C)[C@H](C)NC(=O)[C@H]([C@@H](C)O)NC(=O)[C@H](CC(=O)O)NC(=O)[C@H](CC(C)C)NC1=O` [Compound 71], for which the “ELISA Assay Ratio b1/b7” value is reported as 4.4 and the 50% inhibitory concentration (IC50) is 184 nM.
As for `CC(C)C[C@@H]1NC(=O)C[C@H](CCCCN)NC(=O)[C@H](Cc2ccc3ccccc3c2)NC(=O)[C@@H]2CCCN2[C@H](C(=O)NC(C)(C)C)[C@H](C)NC(=O)[C@H]([C@@H](C)O)NC(=O)[C@H](CC(=O)O)NC1=O` [Compound 203], the half-maximal inhibitory concentration (IC50) is 55 nM.
On to `CC(C)C[C@@H]1NC(=O)[C@H](Cc2ccc(O)cc2)NC(=O)[C@@H]2CCCN2C(C(=O)NC(C)(C)C)C(CSc2ccccc2)NC(=O)[C@H](C(C)C)NC(=O)[C@H](CC(=O)O)NC1=O` (stereo partly drawn) [Compound 1], for which the “ELISA Assay Ratio b1/b7” value is 0.988.
Regarding `CC(C)C[C@@H]1NC(=O)CN(C)C(=O)[C@H](Cc2cscn2)NC(=O)[C@@H]2CCCN2[C@H](C(=O)NC(C)(C)C)[C@H](C)NC(=O)[C@H]([C@@H](C)O)NC(=O)[C@H](CC(=O)O)NC1=O` [Compound 164], the IC50 was 127 nM.
The same measure, in the same setting: to `CC(C)C[C@@H]1NC(=O)C[C@H](CCCCN)NC(=O)[C@H](Cc2ccc(-c3ccccc3)cc2)NC(=O)[C@@H]2CCCN2[C@H](C(=O)NC(C)(C)C)[C@H](C)NC(=O)[C@H]([C@@H](C)O)NC(=O)[C@H](CC(=O)O)NC1=O` [Compound 204] belongs 63 nM; to `CC(C)C[C@@H]1NC(=O)C[C@H](CCCCN)NC(=O)[C@H](Cc2ccccc2-c2cc(C(F)(F)F)ccc2C(F)(F)F)NC(=O)[C@@H]2CCCN2[C@H](C(=O)NC(C)(C)C)[C@H](C)NC(=O)[C@H]([C@@H](C)O)NC(=O)[C@H](CC(=O)O)NC1=O` [Compound 287], 84 nM.
Take `CC(C)C[C@@H]1NC(=O)[C@H]2CCCCN2C(=O)[C@@H](Cc2cccc(-c3cccc4ncccc34)c2)NC(=O)[C@@H]2CCCN2[C@H](C(=O)NC(C)(C)C)[C@H](C)NC(=O)[C@H]([C@@H](C)O)NC(=O)[C@H](CC(=O)O)NC1=O` [Compound 192]: the 50% inhibitory concentration (IC50) was determined as 118 nM.
Regarding `CC(C)C[C@@H]1NC(=O)[C@@H]2c3ccccc3CN2C(=O)[C@@H]2CCCN2[C@H](C(=O)NC(C)(C)C)[C@H](C)NC(=O)[C@H]([C@@H](C)O)NC(=O)[C@H](CC(=O)O)NC1=O` [Compound 99], the IC50 is 57 nM.
On the same count and under the same terms, under `CC(C)C[C@@H]1NC(=O)c2ccc(N(C)C)c(c2)CNC(=O)[C@@H]2CCCN2[C@H](C(=O)NC(C)(C)C)[C@H](C)NC(=O)[C@H]([C@@H](C)O)NC(=O)[C@H](CC(=O)O)NC1=O` [Compound 380] stands 41 nM.
Consider `CC(C)C[C@@H]1NC(=O)[C@H]2C[C@H](O)CN2C(=O)[C@H](Cc2ccc(O)cc2)NC(=O)[C@@H]2CCCN2[C@H](C(=O)NC(C)(C)C)[C@H](C)NC(=O)[C@H]([C@@H](C)O)NC(=O)[C@H](CC(=O)O)NC1=O` [Compound 140], for which the “ELISA Assay Ratio b1/b7” value came to 9.6 and the IC50 came to 53 nM.
On to `CC(C)C[C@@H]1NC(=O)C[C@H]2CCCN2C(=O)[C@H](Cc2ccc(CN)cc2)NC(=O)[C@@H]2CCCN2[C@H](C(=O)NC(C)(C)C)[C@H](C)NC(=O)[C@H]([C@@H](C)O)NC(=O)[C@H](CC(=O)O)NC1=O` [Compound 230], for which the IC50 was determined as 120 nM.
Take `Cc1noc(C)c1-c1ccccc1C[C@H]1NC(=O)[C@@H]2CCCN2[C@H](C(=O)NC(C)(C)C)[C@H](C)NC(=O)[C@H]([C@@H](C)O)NC(=O)[C@H](CC(=O)O)NC(=O)[C@H](CC(C)C)NC(=O)C[C@H](CCCCN)NC1=O` [Compound 276]: the “ELISA Assay Ratio b1/b7” value is listed as 106.2 and the concentration for half-maximal inhibition (IC50) was 134 nM.
As to `C=CCOc1ccc(C[C@@H]2NC(=O)[C@@H]3CCCN3[C@H](C(=O)NC(C)(C)C)[C@H](C)NC(=O)[C@H]([C@@H](C)O)NC(=O)[C@H](CC(=O)O)NC(=O)[C@H](CC(C)C)NC(=O)[C@@H](CO)NC2=O)cc1` [Compound 167], the “ELISA Assay Ratio b1/b7” value was 13.6 and the IC50 was 147 nM.
For `COc1cccc(Cl)c1-c1cccc(C[C@@H]2NC(=O)[C@@H]3CCCN3[C@H](C(=O)NC(C)(C)C)[C@H](C)NC(=O)[C@H]([C@@H](C)O)NC(=O)[C@H](CC(=O)O)NC(=O)[C@H](CC(C)C)NC(=O)C[C@H](CCCCN)NC2=O)c1` [Compound 298], the IC50 was determined as 76 nM.
Turning to `CC(C)C[C@@H]1NC(=O)c2ccc(N3CCOCC3)c(c2)CNC(=O)[C@@H]2CCCN2[C@H](C(=O)NC(C)(C)C)[C@H](C)NC(=O)[C@H]([C@@H](C)O)NC(=O)[C@H](CC(=O)O)NC1=O` [Compound 379], the “ELISA Assay Ratio b1/b7” value was 4.9 and the IC50 was 33 nM.
With `CC(C)C[C@@H]1NC(=O)C[C@H](CCCCN)NC(=O)[C@H](Cc2ccccc2)N(C)C(=O)[C@@H]2CCCN2[C@H](C(=O)NC(C)(C)C)[C@H](C)NC(=O)[C@H]([C@@H](C)O)NC(=O)[C@H](CC(=O)O)NC1=O` [Compound 264], the IC50 came out at 117 nM.
Turning to `CC(C)C[C@@H]1NC(=O)C[C@H](CCCCN)NC(=O)[C@H](Cc2cccc(-c3ccc(F)c(F)c3)c2)NC(=O)[C@@H]2CCCN2[C@H](C(=O)NC(C)(C)C)[C@H](C)NC(=O)[C@H]([C@@H](C)O)NC(=O)[C@H](CC(=O)O)NC1=O` [Compound 267], the half-maximal inhibitory concentration (IC50) stood at 44 nM.
